Molecular target: Poly [ADP-ribose] polymerase 1 (Homo sapiens, UniProt P09874)
Assay: PARP Enzyme Assay: The PARP enzyme assay is set up on ice in a volume of 100 microliters consisting of 100 mM Tris-HCl (pH 8.0), 1 mM MgCl2, 28 mM KCl, 28 mM NaCl, 0.1 mg/ml of DNase I activated herring sperm DNA (Sigma, Mo.), 3.0 micromolar [3H]nicotinamide adenine dinucleotide (470 mci/mmole), 7 micrograms/ml PARP enzyme, and various concentrations of the compounds to be tested. The reaction is initiated by incubating the mixture at 25° C. After 15 minutes of incubation, the reaction is terminated by adding 500 microliters of ice cold 20% (w/v) trichloroacetic acid. The precipitate formed is transferred onto a glass fiber filter (Packard Unifilter-GF/B) and washed three times with ethanol. After the filter is dried, the radioactivity is determined by scintillation counting.

Chain of Poly [ADP-ribose] polymerase 1 (P09874 whole entry): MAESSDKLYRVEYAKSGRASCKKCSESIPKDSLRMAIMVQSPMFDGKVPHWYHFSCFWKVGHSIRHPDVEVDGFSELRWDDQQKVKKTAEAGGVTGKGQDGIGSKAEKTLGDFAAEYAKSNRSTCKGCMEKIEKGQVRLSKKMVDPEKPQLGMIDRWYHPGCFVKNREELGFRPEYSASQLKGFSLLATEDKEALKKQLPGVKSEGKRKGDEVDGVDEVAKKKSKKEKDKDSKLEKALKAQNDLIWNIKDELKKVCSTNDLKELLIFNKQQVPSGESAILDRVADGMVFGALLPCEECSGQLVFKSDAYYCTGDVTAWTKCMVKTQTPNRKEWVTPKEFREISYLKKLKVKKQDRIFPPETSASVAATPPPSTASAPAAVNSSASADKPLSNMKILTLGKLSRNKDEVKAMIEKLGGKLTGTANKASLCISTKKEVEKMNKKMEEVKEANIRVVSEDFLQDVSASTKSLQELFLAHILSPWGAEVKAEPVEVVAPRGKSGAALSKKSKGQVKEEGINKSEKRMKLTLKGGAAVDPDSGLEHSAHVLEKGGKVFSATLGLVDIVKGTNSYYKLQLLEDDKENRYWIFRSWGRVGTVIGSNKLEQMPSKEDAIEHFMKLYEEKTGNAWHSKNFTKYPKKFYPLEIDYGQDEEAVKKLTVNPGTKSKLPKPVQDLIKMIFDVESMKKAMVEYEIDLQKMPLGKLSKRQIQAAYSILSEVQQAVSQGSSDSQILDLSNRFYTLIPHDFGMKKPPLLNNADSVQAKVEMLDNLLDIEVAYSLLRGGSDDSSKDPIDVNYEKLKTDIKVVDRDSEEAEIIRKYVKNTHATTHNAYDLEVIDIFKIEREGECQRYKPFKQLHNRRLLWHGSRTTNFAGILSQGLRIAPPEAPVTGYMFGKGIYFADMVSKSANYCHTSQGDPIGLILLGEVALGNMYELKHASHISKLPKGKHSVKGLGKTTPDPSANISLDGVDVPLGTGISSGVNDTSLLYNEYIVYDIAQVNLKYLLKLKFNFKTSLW

IC50: 0.5 µM
Compound: CCN(CC)CCN(CC)Cc1ccc2c(c1)-c1n[nH]c(=O)c3cccc(c13)O2

— ChEMBL document CHEMBL3639262, “Diazabenzo[de] anthracen-3-one compounds and methods for inhibiting PARP” (2013)
